Source: patent US20250340575A1, “4-AMINOPYRROLO[2,1-F][1,2,4]TRIAZINES AND PREPARATION AND USES THEREOF” (Biosplice Therapeutics, Inc., priority 2024, published 2025)

Target: recombinant DYRK1A kinase (Homo sapiens, UniProt Q13627)
Experiment: DYRK1A kinase assay (Ser/Thr 18 peptide Z-lyte FRET)
Assay type: biochemical
Details: DYRK1A 0.25 μg/mL, ATP 15 μM, Ser/Thr peptide 18 4 μM, one hour at room temperature, 11-point dose-response from 10 μM

| Compound | IC50 [nM] |
| --- | --- |
| CC[C@]1(O)C[C@H](Nc2nc(NC)c3c(-c4ccc5nnn(CC(F)F)c5n4)ccn3n2)C1 [Compound 267, (1r,3s)-3-((5-(3-(2,2-Difluoroethyl)-3H-[1,2,3]triazolo[4,5-b]pyridin-5-yl)-4-(methylamino)pyrrolo[2,1-f][1,2,4]triazin-2-yl)amino)-1-ethylcyclobutan-1-ol] | 0.5 |
| Nc1nc(N[C@@H]2CCN(C3COC3)CC2(F)F)nn2ccc(-c3ccc4ncn(CC(F)(F)F)c4n3)c12 [Compound 131, (R)—N^2-(3,3-Difluoro-1-(oxetan-3-yl)piperidin-4-yl)-5-(3-(2,2,2-trifluoroethyl)-3H-imidazo[4,5-b]pyridin-5-yl)pyrrolo[2,1-f][1,2,4]triazine-2,4-diamine] | 4.7 |
| C[C@]1(O)CC[C@H](Nc2nc(N)c3c(-c4ccc5ncn(CCF)c5n4)ccn3n2)CC1 [Compound 112, (1r,4r)-4-((4-Amino-5-(3-(2-fluoroethyl)-3H-imidazo[4,5-b]pyridin-5-yl)pyrrolo[2,1-f][1,2,4]triazin-2-yl)amino)-1-methylcyclohexan-1-ol] | 1.2 |
| CNc1nc(NC2CCC(F)(F)CC2)nn2ccc(-c3ccc4nnn(CCF)c4n3)c12 [Compound 233, N^2-(4,4-Difluorocyclohexyl)-5-(3-(2-fluoroethyl)-3H-[1,2,3]triazolo[4,5-b]pyridin-5-yl)-N^4-methylpyrrolo[2,1-f][1,2,4]triazine-2,4-diamine] | 8.1 |
| CNc1nc(N[C@@H]2CCN(C(C)=O)CC2(F)F)nn2cc(F)c(-c3ccc4nccn4n3)c12 [Compound 56, (R)-1-(3,3-Difluoro-4-((6-fluoro-5-(imidazo[1,2-b]pyridazin-6-yl)-4-(methylamino)pyrrolo[2,1-f][1,2,4]triazin-2-yl)amino)piperidin-1-yl)ethan-1-one] | 1.4 |
| CNc1nc(N[C@@H]2CCN(C)CC2(F)F)nn2cc(F)c(-c3ccc4nnn(CCF)c4n3)c12 [Compound 251, (R)—N^2-(3,3-Difluoro-1-methylpiperidin-4-yl)-6-fluoro-5-(3-(2-fluoroethyl)-3H-[1,2,3]triazolo[4,5-b]pyridin-5-yl)-N^4-methylpyrrolo[2,1-f][1,2,4]triazine-2,4-diamine] | 2.2 |
| CNc1nc(N[C@@H]2CCN(C)CC2(F)F)nn2cc(F)c(-c3ccc4nccn4n3)c12 [Compound 55, (R)—N^2-(3,3-Difluoro-1-methylpiperidin-4-yl)-6-fluoro-5-(imidazo[1,2-b]pyridazin-6-yl)-N^4-methylpyrrolo[2,1-f][1,2,4]triazine-2,4-diamine] | 4 |
| Nc1nc(N[C@H]2CCN(C3COC3)C[C@H]2F)nn2cc(F)c(-c3ccc4nccn4n3)c12 [Compound 39, 6-Fluoro-N2-((3R,4S)-3-fluoro-1-(oxetan-3-yl)piperidin-4-yl)-5-(imidazo[1,2-b]pyridazin-6-yl)pyrrolo[2,1-f][1,2,4]triazine-2,4-diamine] | 3.1 |
| CN1C[C@@H](Nc2nc(N)c3c(-c4ccc5ncn(CC(F)(F)F)c5n4)ccn3n2)C(F)(F)C1 [Compound 124, (R)—N^2-(4,4-Difluoro-1-methylpyrrolidin-3-yl)-5-(3-(2,2,2-trifluoroethyl)-3H-imidazo[4,5-b]pyridin-5-yl)pyrrolo[2,1-f][1,2,4]triazine-2,4-diamine] | 1 |
| CCn1nnc2ccc(-c3c(F)cn4nc(N[C@@H]5CCN(C(C)=O)CC5(F)F)nc(NC)c34)nc21 [Compound 216, (R)-1-(4-((5-(3-Ethyl-3H-[1,2,3]triazolo[4,5-b]pyridin-5-yl)-6-fluoro-4-(methylamino)pyrrolo[2,1-f][1,2,4]triazin-2-yl)amino)-3,3-difluoropiperidin-1-yl)ethan-1-one] | 2.6 |
| CNc1nc(N[C@H]2CCN(C3COC3)C[C@H]2F)nn2cc(F)c(-c3ccc4nccn4n3)c12 [Compound 54, 6-Fluoro-N^2-((3R,4S)-3-fluoro-1-(oxetan-3-yl)piperidin-4-yl)-5-(imidazo [1,2-b]pyridazin-6-yl)-N^4-methylpyrrolo[2,1-f][1,2,4]triazine-2,4-diamine] | 2.4 |
| Nc1nc(N[C@H]2CCN(C3COC3)C[C@H]2F)nn2ccc(-c3ccc4ncn(CC(F)(F)F)c4n3)c12 [Compound 129, N^2-((3R,4S)-3-Fluoro-1-(oxetan-3-yl)piperidin-4-yl)-5-(3-(2,2,2-trifluoroethyl)-3H-imidazo[4,5-b]pyridin-5-yl)pyrrolo[2,1-f][1,2,4]triazine-2,4-diamine] | 1.4 |
| CNc1nc(N[C@H]2CCN(C3COC3)C[C@H]2F)nn2ccc(-c3ccc4nnn(CCF)c4n3)c12 [Compound 236, N^2-((3R,4S)-3-fluoro-1-(oxetan-3-yl)piperidin-4-yl)-5-(3-(2-fluoroethyl)-3H-[1,2,3]triazolo[4,5-b]pyridin-5-yl)-N^4-methylpyrrolo[2,1-f][1,2,4]triazine-2,4-diamine] | 2.1 |
| Cc1nc2ccc(-c3c(F)cn4nc(N[C@H]5CCN(C6COC6)C[C@H]5F)nc(N)c34)nc2n1CCF [Compound 145, 6-Fluoro-N2-((3R,4S)-3-fluoro-1-(oxetan-3-yl)piperidin-4-yl)-5-(3-(2-fluoroethyl)-2-methyl-3H-imidazo[4,5-b]pyridin-5-yl)pyrrolo[2,1-f][1,2,4]triazine-2,4-diamine] | 1.7 |
| CCn1nnc2ccc(-c3c(F)cn4nc(N[C@H]5CCN(C6COC6)C[C@H]5F)nc(NC)c34)nc21 [Compound 214, 5-(3-Ethyl-3H-[1,2,3]triazolo[4,5-b]pyridin-5-yl)-6-fluoro-N^2-((3R,4S)-3-fluoro-1-(oxetan-3-yl)piperidin-4-yl)-N^4-methylpyrrolo[2,1-f][1,2,4]triazine-2,4-diamine] | 4.9 |
| CC(=O)N1CC[C@@H](Nc2nc(N)c3c(-c4ccc5nnn(CCF)c5n4)ccn3n2)C(F)(F)C1 [Compound 222, (R)-1-(4-((4-Amino-5-(3-(2-fluoroethyl)-3H-[1,2,3]triazolo[4,5-b]pyridin-5-yl)pyrrolo[2,1-f][1,2,4]triazin-2-yl)amino)-3,3-difluoropiperidin-1-yl)ethan-1-one] | 3.2 |
| Nc1nc(N[C@H]2CCN(C3COC3)C[C@H]2F)nn2ccc(-c3ccc4nnn(CCF)c4n3)c12 [Compound 220, N^2-((3R,4S)-3-Fluoro-1-(oxetan-3-yl)piperidin-4-yl)-5-(3-(2-fluoroethyl)-3H-[1,2,3]triazolo[4,5-b]pyridin-5-yl)pyrrolo[2,1-f][1,2,4]triazine-2,4-diamine] | 5.2 |

Further molecules by falling IC50, results first:

| IC50 [nM] | Compound |
| --- | --- |
| 9.7 | CC(C)Nc1nc(N[C@H]2CCN(C3COC3)C[C@H]2F)nn2ccc(-c3ccc4nnn(CC(F)F)c4n3)c12 [Compound 411, 5-(3-(2,2-Difluoroethyl)-3H-[1,2,3]triazolo[4,5-b]pyridin-5-yl)-N^2-((3R,4S)-3-fluoro-1-(oxetan-3-yl)piperidin-4-yl)-N^4-isopropylpyrrolo[2,1-f][1,2,4]triazine-2,4-diamine] |
| 5 | CNc1nc(N[C@@H]2CCN(C)C[C@@H]2F)nn2ccc(-c3ccc4nnn(CC(F)F)c4n3)c12 [Compound 272, 5-(3-(2,2-Difluoroethyl)-3H-[1,2,3]triazolo[4,5-b]pyridin-5-yl)-N^2-((3S,4R)-3-fluoro-1-methylpiperidin-4-yl)-N^4-methylpyrrolo[2,1-f][1,2,4]triazine-2,4-diamine] |
| 5 | CNc1nc(N[C@H]2CCN(C(C)=O)C[C@H]2F)nn2ccc(-c3ccc4nc(C)n(C(F)F)c4n3)c12 [Compound 134] |
| 4.4 | CNc1nc(N[C@H]2CCN(C3COC3)C[C@H]2F)nn2ccc(-c3ccc4nnn(CCCF)c4n3)c12 [Compound 337, N^2-((3R,4S)-3-Fluoro-1-(oxetan-3-yl)piperidin-4-yl)-5-(3-(3-fluoropropyl)-3H-[1,2,3]triazolo[4,5-b]pyridin-5-yl)-N^4-methylpyrrolo[2,1-f][1,2,4]triazine-2,4-diamine] |
| 3.4 | CNc1nc(N[C@H]2CCN(C(C)=O)C[C@H]2F)nn2ccc(-c3ccc4nnn(CCCF)c4n3)c12 [Compound 335, 1-((3R,4S)-3-Fluoro-4-((5-(3-(3-fluoropropyl)-3H-[1,2,3]triazolo[4,5-b]pyridin-5-yl)-4-(methylamino)pyrrolo[2,1-f][1,2,4]triazin-2-yl)amino)piperidin-1-yl)ethan-1-one] |
| 2.7 | Cc1nc2ccc(-c3ccn4nc(N[C@@H]5CCN(C)CC5(F)F)nc(N)c34)nc2n1CCF [Compound 142, (R)—N^2-(3,3-Difluoro-1-methylpiperidin-4-yl)-5-(3-(2-fluoroethyl)-2-methyl-3H-imidazo[4,5-b]pyridin-5-yl)pyrrolo[2,1-f][1,2,4]triazine-2,4-diamine] |
| 1.7 | CN1CC[C@H](Nc2nc(N)c3c(-c4ccc5ncn(CC(F)(F)F)c5n4)ccn3n2)[C@H](F)C1 [Compound 125, N^2-((3R,4S)-3-Fluoro-1-methylpiperidin-4-yl)-5-(3-(2,2,2-trifluoroethyl)-3H-imidazo[4,5-b]pyridin-5-yl)pyrrolo[2,1-f][1,2,4]triazine-2,4-diamine] |
| 1.5 | CC(=O)N1CC[C@H](Nc2nc(N)c3c(-c4ccc5ncn(CC(F)(F)F)c5n4)ccn3n2)[C@H](F)C1 [Compound 127, 1-((3R,4S)-4-((4-Amino-5-(3-(2,2,2-trifluoroethyl)-3H-imidazo[4,5-b]pyridin-5-yl)pyrrolo[2,1-f][1,2,4]triazin-2-yl)amino)-3-fluoropiperidin-1-yl)ethan-1-one] |
| 1.3 | CC(=O)N1CC[C@@H](Nc2nc(N)c3c(-c4ccc5nnn(CC(F)F)c5n4)c(F)cn3n2)C(F)(F)C1 [Compound 262, (R)-1-(4-((4-Amino-5-(3-(2,2-difluoroethyl)-3H-[1,2,3]triazolo[4,5-b]pyridin-5-yl)-6-fluoropyrrolo[2,1-f][1,2,4]triazin-2-yl)amino)-3,3-difluoropiperidin-1-yl)ethan-1-one] |
| 0.8 | CN1CC[C@H](Nc2nc(N)c3c(-c4ccc5ncn(CCF)c5n4)ccn3n2)[C@H](F)C1 [Compound 113, N^2-((3R,4S)-3-Fluoro-1-methylpiperidin-4-yl)-5-(3-(2-fluoroethyl)-3H-imidazo[4,5-b]pyridin-5-yl)pyrrolo[2,1-f][1,2,4]triazine-2,4-diamine] |
